# Data: patent US20240391958A1, “KEANUMYCINS AND USES THEREOF IN MEDICINE AND PLANT PROTECTION” (Leibniz-Institut für Naturstoff-Forschung und …, priority 2023, published 2024)
# Several values for one entry are separate records, joined by “and”; a condition that tells them apart may be missing. Equal entries are not always repeated. Where two headings read alike, the source gives them in different places. Where a SMILES comes first, the peptide text is derived from it. Bridges are numbered along the chain shown (N, C = ends). [ ]: non-standard residue; d: D form. The star is where a group is joined. X1 = CCCCCCCCCCCC[C@@H](O)[C@@H](O)CC(=O)*; Asp(3S-OH) = N[C@H](C(=O)O)[C@H](O)C(=O)O; Thr(4-Cl) = N[C@H](C(=O)O)[C@H](O)CCl; aThr = C[C@H](O)[C@H](N)C(=O)O; d(hSer) = N[C@H](CCO)C(=O)O; dDab = NCC[C@@H](N)C(=O)O; Dab = NCC[C@H](N)C(=O)O; Dhb = C/C=C(\N)C(=O)O
# What was measured:
# [1] = system: Candida parapsilosis ATCC 22019; experiment: Broth dilution method (EUCAST); type: cell-based; conditions: Lodderomyces parapsilosis
# Method: (§1) The activity assay was performed using the broth dilution method according to the EUCAST DEFINITIVE DOCUMENT E.DEF 9.3.2. B. cinerea and A. solani were incubated according to the Methods for dilution antimicrobial susceptibility tests for bacteria that grow aerobically by the NCCLS. Keanumycin A was dissolved in DMSO.
# [2] = system: Rhizopus arrhizus 2021-366; experiment: Broth dilution method (EUCAST); type: cell-based
# Method: as §1
# [3] = system: Candida glabrata 2021-359; experiment: Broth dilution method (EUCAST); type: cell-based
# Method: as §1
# [4] = system: Scedosporium apiospermum 2016-079; experiment: Broth dilution method (EUCAST); type: cell-based
# Method: as §1
# [5] = system: Candida tropicalis 2021-360; experiment: Broth dilution method (EUCAST); type: cell-based
# Method: as §1
# Candida auris 2021-353 = experiment: Broth dilution method (EUCAST); type: cell-based
# Method: as §1
# [6] = system: Aspergillus fumigatus ATCC 204305; experiment: Broth dilution method (EUCAST); type: cell-based; conditions: Aspergillus fumigatus
# Method: as §1
# [7] = system: Fusarium proliferatum 2021-361; experiment: Broth dilution method (EUCAST); type: cell-based
# Method: as §1
# [8] = system: Staphylococcus aureus SG 511; experiment: Disk diffusion test; type: cell-based; conditions: 1 mg/mL in MeOH, 50 μL per 9 mm hole, 24 h 37 °C
# Method: (§2) A qualitative screen of different microorganisms was performed using a disk diffusion test. Each microorganism was plated on Mueller Hinton agar plates and 9 mm holes were punched out. The respective compounds were dissolved in the indicated solvent to yield solutions of specified concentrations. 50 μL of the respective solutions were placed in each hole. The plates were incubated for 24 h at 37° C. After incubation, the size of inhibition zones was determined.
# [9] = system: Sporobolomyces salmonicolor; experiment: Disk diffusion test; type: cell-based; conditions: 1 mg/mL in MeOH, 50 μL per 9 mm hole, 24 h 37 °C; methanol alone 10 mm
# Method: as §2
# [10] = system: Pseudomonas aeruginosa K799/61; experiment: Disk diffusion test; type: cell-based; conditions: 1 mg/mL in MeOH, 50 μL per 9 mm hole, 24 h 37 °C
# Method: as §2
# Escherichia coli = experiment: Disk diffusion test; type: cell-based; conditions: 1 mg/mL in MeOH, 50 μL per 9 mm hole, 24 h 37 °C
# Method: as §2
# Mycobacterium vaccae = experiment: Disk diffusion test; type: cell-based; conditions: 1 mg/mL in MeOH, 50 μL per 9 mm hole, 24 h 37 °C
# Method: as §2
# [11] = system: Enterococcus faecalis (VRE) 1528; experiment: Disk diffusion test; type: cell-based; conditions: 1 mg/mL in MeOH, 50 μL per 9 mm hole, 24 h 37 °C
# Method: as §2
# Bacillus subtilis = experiment: Disk diffusion test; type: cell-based; conditions: 1 mg/mL in MeOH, 50 μL per 9 mm hole, 24 h 37 °C
# Method: as §2
# [12] = system: Staphylococcus aureus (MRSA) 134/94; experiment: Disk diffusion test; type: cell-based; conditions: 1 mg/mL in MeOH, 50 μL per 9 mm hole, 24 h 37 °C
# Method: as §2
# A. castellanii = experiment: Amoebicidal activity against Acanthamoeba (resazurin assay); type: cell-based; conditions: 96 h, 28 °C, average of two experiments
# Method: (§3) Amoebicidal activity of keanumycin A against Acanthamoeba was determined by culturing A. castellanii or A. comandoni in 96-well plates (Sarstedt) in 100 μL PYG medium (ATCC Medium 712; https://www.atcc.org) containing 1% DMSO (Carl Roth) and a specified amount of compound (starting from 50 μM; 2-fold serial dilution) in triplicates at 28° C. After 96 h the cell viability was determined using a resazurin assay. Therefore, 20 μL of a 1 mM resazurin sodium (Sigma) solution in water was added per single well before it was allowed to incubate for another 3 h at 28° C. Using a plate reader (Tecan Life Sciences, excitation 560 nm and emission 590 nm) the fluorescence emission was determined. The fluorescence (including standard deviation) was plotted against the logarithmic concentration of the compound and the IC50 value was determined using PRISM (GraphPad, Version 5.03).
# A. comandoni = experiment: as above; type: cell-based; conditions: 96 h, 28 °C, average of two experiments
# Method: as §3
# C. albicans = experiment: Membrane permeabilization assay using SYTOX Green; type: cell-based, Candida albicans; conditions: 4 μg mL-1 in 1% DMSO
# Description: Only isolated cells are stained, which can be explained by the fact that the dye can also be used to distinguish dead from live cells. Scale bar=100 μm.
# To finally examine if keanumycin A is a membrane-active compound, the inventors performed a membrane permeabilization assay using SYTOX Green (FIG. 6). As a cell-impermeant dye, SYTOX Green enters the cell upon loss of membrane integrity and binds to DNA, which results in fluorescently stained cells. […] Thus, the keanumycins are membrane-active compounds that disturb the structure of the fungal […].
# [13] = system: Alternaria solani SF003858; experiment: Broth dilution method (NCCLS); type: cell-based; conditions: 22 °C
# Method: as §1
# [14] = system: Botrytis cinerea SF011406; experiment: Broth dilution method (NCCLS); type: cell-based
# Method: as §1
# [15] = system: C. albicans strain SC5314; experiment: MIC against C. albicans SC5314; type: cell-based; conditions: Candida albicans
# [16] = system: human chronic myeloid leukemia cells K-562 (DSM ACC 10); experiment: Antiproliferative effect; type: cell-based
# Method: (§4) Keanumycin A was assayed for antiproliferative effects (GI50) using human umbilical vein endothelial cells HUVEC (ATCC CRL-1730) and human chronic myeloid leukemia cells K-562 (DSM ACC 10) and for their cytotoxic effects (CC50) using human cervix carcinoma cells HeLa (DSM ACC 57) as previously described). The test compounds were dissolved in DMSO (10 mg mL-1).
# [17] = system: human umbilical vein endothelial cells HUVEC (ATCC CRL-1730); experiment: Antiproliferative effect; type: cell-based
# Method: as §4
# Cytotoxicity = type: cell-based; conditions: human, HeLa cervix carcinoma cells (DSM ACC 57)
# Method: as §4
compound,measurement,setting,value
"C/C=C1\NC(=O)[C@H]([C@H](C)O)NC(=O)[C@H](CCN)NC(=O)[C@@H](CCO)NC(=O)CNC(=O)[C@@H](CCN)NC(=O)[C@@H](NC(=O)C[C@H](O)[C@H](O)CCCCCCCCCCCC)COC(=O)[C@H]([C@H](O)CCl)NC(=O)[C@H]([C@H](O)C(=O)O)NC1=O [Keanumycin A, keanumycin A] (X1-S[dDab]G[d(hSer)][Dab][aThr][Dhb][Asp(3S-OH)][Thr(4-Cl)]; ester 1-C)",MIC,[1]; ATCC22019,0.86 µM and 1 µg/mL
same,MIC,"[1]; ATCC22019, read-out: Result of the broth dilution method assay (MIC)",1 µg/mL
same,MIC,"[2]; Rhizopus arrhizus, 2021366",> 6.85 µM and > 8 µg/mL
same,MIC,"[2]; Rhizopus arrhizus, 2021366, read-out: Result of the broth dilution method assay (MIC)",> 8 µg/mL
same,MIC,"[3]; Nakaseomyces glabratus, 2021359",0.86 µM and 1 µg/mL
same,MIC,"[3]; Nakaseomyces glabratus, 2021359, read-out: Result of the broth dilution method assay (MIC)",1 µg/mL
same,MIC,"[4]; Scedosporium apiospermum, 2016079",6.85 µM and 8 µg/mL
same,MIC,"[4]; Scedosporium apiospermum, 2016079, read-out: Result of the broth dilution method assay (MIC)",8 µg/mL
same,MIC,"[5]; Candida tropicalis, 2021360",0.86 µM and 1 µg/mL
same,MIC,"[5]; Candida tropicalis, 2021360, read-out: Result of the broth dilution method assay (MIC)",1 µg/mL
same,MIC,"Candida auris 2021-353; Candidozyma auris, 2021353",0.86 µM and 1 µg/mL
same,MIC,"Candida auris 2021-353; Candidozyma auris, 2021353, read-out: Result of the broth dilution method assay (MIC)",0.5 to 1 µg/mL
same,MIC,[6]; ATCC204305,3.42 µM and 4 µg/mL
same,MIC,"[6]; ATCC204305, read-out: Result of the broth dilution method assay (MIC)",4 µg/mL
same,MIC,[7],> 6.85 µM and > 8 µg/mL
same,MIC,"[7]; Fusarium proliferatum, 2021361, read-out: Result of the broth dilution method assay (MIC)",> 8 µg/mL
same,Inhibition area diameter,[8],10 mm
same,Inhibition area diameter,[9],28 mm
same,Inhibition area diameter,[10],0 mm
same,Inhibition area diameter,Escherichia coli,0 mm
same,Inhibition area diameter,Mycobacterium vaccae,13 mm
same,Inhibition area diameter,[11],12 mm
same,Inhibition area diameter,Bacillus subtilis,11 mm
same,Inhibition area diameter,[12],0 mm
same,IC50,A. castellanii,2 µM
same,IC50,A. comandoni,3.1 µM
same,membrane permeabilization (SYTOX Green staining),C. albicans,permeabilizes the cell wall of the fungi
same,membrane permeabilization (SYTOX Green staining),C. albicans; listed as keanumycin A,staining of all cells
same,MIC,[13],1.07 µM and 1.25 µg/mL
same,MIC,"[14]; Botrytis cinerea SF011406, NCCLS, 22 °C",0.08 µg/mL
same,MIC,"[14]; Botrytis cinerea, SF011406, Botrytis cinerea, NCCLS, 22 °C, read-out: MIC",0.07 µM
same,MIC,"[14]; Botrytis cinerea, SF011406, Botrytis cinerea, read-out: MIC",0.069 µM
same,MIC,[15],1.72 µM
same,GI50,[16]; K562,26.8 µg/mL
same,GI50,"[16]; K562, K-562, converted value, read-out: GI50",23 µM
same,GI50,[17],≥ 50 µg/mL
same,GI50,"[17]; converted value, read-out: GI50",> 43 µM
same,CC50,Cytotoxicity,34.9 µg/mL
same,CC50,"Cytotoxicity; HeLa, converted value",30 µM
